# According to patent US20140121240A1, “NOVEL PHARMACEUTICAL COMPOSITION” (MARUHO CO., LTD., priority 2011, published 2014):
# System: histamine-induced scratching behavior
# Assay: Antipruritic activity in histamine-induced scratching model, dose response (Experiment 3 (1))
# Type: in vivo, mouse
# Description: (1) [Antipruritic Activity of Test Compound in Histamine-Induced Scratching Model]
# After topical administration of a solution (50 μL) of test compound (0.3 to 3% w/v solution of Compound A in acetone, or 0.03 to 0.3% w/v solution of cipamfylline in acetone), or a vehicle (acetone; 50 μL) onto right dorsal neck of ICR female mice similarly pre-treated as described in Experiment 1, these animals were placed into a testing apparatus (MicroAct). After one hour of the administration of said test compound solution or vehicle, a solution (50 μL) of histamine in saline (300 nmol/50 μL) or saline (50 μL; control group) was intradermally administered to right dorsal neck of each mouse. Immediately after the administration, scratching behavior (counts of scratching) was measured for 30 minutes by the testing apparatus (MicroAct).
smiles,measurement,setting,value
"COc1cc2cc(CO)c(CO)c(-c3ccnc(N4CC[C@H](O)c5ccccc54)c3)c2cc1OC [Compound A, 1-[2-(4S)-4-hydroxy-1,2,3,4-tetrahydroquinolin-1-yl]-4-pyridyl]-2,3-bis(dihydroxymethyl)-6,7-dimethoxynaphthalene sesquihydrate]",Counts of scratching (Mean),0.3% w/v in acetone 50 μL topical 1 h before histamine 300 nmol/50 μL,634 beats/30 min.
same,Counts of scratching (Mean),1% w/v in acetone 50 μL topical 1 h before histamine 300 nmol/50 μL,611 beats/30 min.
same,Counts of scratching (Mean),3% w/v in acetone 50 μL topical 1 h before histamine 300 nmol/50 μL,314 beats/30 min.
